Experiments:
DLD1 NRF2-GOF [1] = experiment: drug sensitivity score (DSS) cytotoxicity (DSS score); higher = more toxic; extreme values may be limits of the assay; conditions: 72 h; CellTox Green cytotoxicity
How it was run: (§1)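 TC50 and drug sensitivity score, a normalised area under the curve, were derived by logistic dose-response fits of cytotoxicity. The cells were an isogenic DLD1 colorectal cancer pair, NRF2 wild-type or CRISPR-edited, kept in DMEM with 10% FBS. Compounds were tested in 384-well plates at 5 concentrations across a 10,000-fold range for 72 h. Readings with CellTox Green on a Pherastar FS reader were normalised to vehicle wells and 100-μM positive-control wells.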

DLD1 NRF2-WT [2] = experiment: as above; conditions: 72 h; CellTox Green cytotoxicity
How it was run: as §1

DLD1 NRF2-GOF [3] = experiment: drug sensitivity score (DSS) viability (DSS score); higher = more sensitive; extreme values may be limits of the assay; conditions: 72 h; CellTiter-Glo viability
How it was run: (§2)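 Cells grown in DMEM with 10% FBS were isogenic DLD1 colorectal cancer lines, NRF2 wild-type or CRISPR gain-of-function. In 384-well plates they received library compounds at 5 concentrations over a 10,000-fold range for 72 h before CellTiter-Glo readout on a Pherastar FS reader, normalised to vehicle wells and 100-μM positive-control wells. Dose-response fits used a four-parameter logistic model, from which EC50 and drug sensitivity score, a normalised area under the curve, were obtained.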

DLD1 NRF2-WT [4] = experiment: as above; conditions: 72 h; CellTiter-Glo viability
How it was run: as §2

DLD1 NRF2-GOF [5] = conditions: 72 h; CellTiter-Glo viability
How it was run: as §2

DLD1 NRF2-WT [6] = conditions: 72 h; CellTiter-Glo viability
How it was run: as §2

DLD1 NRF2-GOF [7] = experiment: TC50 cytotoxicity; higher = less toxic; conditions: 72 h; CellTox Green cytotoxicity
How it was run: as §1

DLD1 NRF2-WT [8] = experiment: TC50 cytotoxicity; higher = less toxic; conditions: 72 h; CellTox Green cytotoxicity
How it was run: as §1

| SMILES | drug sensitivity score (DLD1 NRF2-GOF [1]) | drug sensitivity score (DLD1 NRF2-WT [2]) | drug sensitivity score (DLD1 NRF2-GOF [3]) | drug sensitivity score (DLD1 NRF2-WT [4]) | EC50 viability (DLD1 NRF2-GOF [5]) [nM] | EC50 viability (DLD1 NRF2-WT [6]) [nM] | TC50 cytotoxicity (DLD1 NRF2-GOF [7]) [nM] | TC50 cytotoxicity (DLD1 NRF2-WT [8]) [nM] |
| --- | --- | --- | --- | --- | --- | --- | --- | --- |
| O=C(/C=C\n1cnc(-c2cc(C(F)(F)F)cc(C(F)(F)F)c2)n1)NNc1cnccn1 [Selinexor] | 2.5 | 1.5 | 15.5 | 16.7 | 323 | 202 | > 10000 | > 10000 |
| CN1CCN(C(=O)c2ccc3cc(CCNc4ncnc5ccc(C#N)cc45)ccc3c2)CC1 [Senexin B] | 0 | 0 | 3.6 | 3.5 | 114 | 102 | > 1000 | > 1000 |
| COCC[n+]1c2c(n(Cc3cnccn3)c1C)C(=O)c1ccccc1C2=O [Sepantronium bromide] | 30.9 | 21.7 | 41.8 | 38.7 | 3.7 | 6.8 | 27.5 | 28.7 |
| O=C(O)c1ccc2c(c1)nc(Nc1cccc(Cl)c1)c1ccncc12 [Silmitasertib] | 0 | 0.3 | 2.8 | 2.1 | 1520 | 3600 | > 10000 | > 10000 |
| CN1CCN(c2nc(C3=C(c4c[nH]c5ccccc45)C(=O)NC3=O)c3ccccc3n2)CC1 [Sotrastaurin] | 0 | 0 | 0 | 1.2 | > 10000 | > 10000 | > 10000 | > 10000 |
| C=CC(=O)Nc1cccc(Nc2nc(Nc3ccc(OCCOC)cc3)ncc2F)c1 [Spebrutinib] | 0 | 0 | 6.5 | 3.2 | 39.6 | 82.2 | > 1000 | > 1000 |
| CCN(CC)CCNC(=O)c1c(C)[nH]c(/C=C2\C(=O)Nc3ccc(F)cc32)c1C [Sunitinib] | 0 | 0 | 2.8 | 1.9 | 229 | 381 | > 1000 | > 1000 |
| CCS(=O)(=O)c1cccc(-c2cc(C(=O)NC3CCN(C)CC3)c(C)c3[nH]c4ncc(C)cc4c23)c1 [TAK-901] | 5.6 | 2.2 | 11.2 | 7.8 | 53.3 | 108 | 83.7 | > 1000 |
| Cc1cccc(-c2[nH]c(CNc3ccccc3F)nc2-c2ccc3ncnn3c2)n1 [TEW-7197] | 0 | 0 | 1.7 | 0 | > 2500 | > 2500 | > 2500 | > 2500 |
| Nc1nc(N)c2nc(-c3cccc(O)c3)c(-c3cccc(O)c3)nc2n1 [TG100-115] | 0 | 0 | 3.5 | 7.1 | 1430 | 75.1 | > 10000 | > 10000 |

Reference: the supplement of paper PMC7600603
